In general, EC50 refers to the midpoint of the concentration-response curve. What is called IC50 is the concentration that gives 50% inhibition.

Assay [1] has as its system MV4-11 (acute myeloid leukemia, FLT3-ITD positive). In words: Calcein AM cytotoxicity assay. The format is cell-based. The following applies: Homo sapiens, 72 h; MV4-11; Calcein AM, three days after drug addition; read-out: EC50 values (μM) MV4-11. The source says:
(§1) Cytotoxicity of the compounds is the major property determining their anticancer effect in vivo. One of the parameters used, as the basis for cytotoxicity assays, is the integrity of cytoplasmic membrane of viable cells. For example, a microtiter assay, which uses acetomethoxy derivate of calcein (Calcein AM), is widely used for evaluation of cell proliferation and cytotoxicity. This assay is used in drug screening programs and in chemosensitivity testing. Intracellular esterases of viable cells convert calcein AM to green-fluorescent calcein of which signal corresponds to the number of viable cells in the culture.
(§2) We have been using the following cell lines: MV4-11 (acute myeloid leukemia, FLT3-ITD positive), MOLM-13 (acute myeloid leukemia, FLT3-ITD positive), THP-1 (acute myeloid leukemia, wt FLT3), U937 (monocytic leukemia, wt FLT3), EOL-1 (eosinophilic leukaemia, carrying the fusion FIP1L1-PDGFRA), H1703 (non-small cell lung carcinoma, PDGFRA amplification). […] K562 and MCF-7 cell lines were maintained in DMEM supplemented with 10% fetal bovine serum, penicilin (100 U/ml) and streptomycin (100 μg/ml). All cell lines were cultivated at 37° C. in 5% CO2. For cytotoxicity assays, cells were seeded in appropriate densities into 96 well plates and the next day tested compounds were added at various concentrations in triplicates. Three days after drug addition, Calcein AM solution (final concentration 1 μg/ml; Thermo Scientific, USA) was added into each well and incubated for 1 h.

In assay [2] the test system is EOL-1 (eosinophilic leukaemia, carrying the fusion FIP1L1-PDGFRA). As to the kind of experiment: Calcein AM cytotoxicity assay. The class given is cell-based. The settings on record: Homo sapiens, EOL1, 72 h; EOL-1; Calcein AM, three days; read-out: EC50 values (μM) EOL-1.
Text: as §1, §2

A further assay addresses T1, CDK2/Cyclin E (Homo sapiens, UniProt P24941).
T1 construct: made in house; host or cells: Sf9 insect cells, baculoviral infection
In words: Kinase inhibition assay with [γ-33P]ATP. The format is biochemical. The settings on record: histone H1, 15 μM ATP; read-out: IC50 values (μM) CDK2. The protocol: (§3) CDK1/Cyclin B and CDK2/Cyclin E kinases were produced in Sf9 insect cells via baculoviral infection and purified on a NiNTA column (Qiagen). CDK5/p35 and CDK7Cyclin H/MAT1, FLT3 WT, FLT3-ITD and FLT3 D835 were purchased from ProQinase GmbH. The kinase reactions were assayed with 1 mg/mL histone H1 (for CDK1, CDK2 and CDK5), (YSPTSPS)2KK peptide (for CDK7) or AGLT substrate (for FLT3) in the presence of 15/15/0.15/1.5/1 μM ATP (for CDK1/CDK2/CDK5/CDK7/FLT3), 0.05 μCi [γ-^33P]ATP and of the test compound in a final volume of 10 μL, all in a reaction buffer (60 mM HEPES-NaOH, pH 7.5, 3 mM MgCl2, 3 mM MnCl2, 3 μM Na-orthovanadate, 1.2 mM DTT, 2.5 μg/50 μl PEG20,000). The reactions were stopped by adding 5 μL of 3% aq H3PO4. Aliquots were spotted onto P-81 phosphocellulose (Whatman), washed 3× with 0.5% aq H3PO4 and finally air-dried.

Assay [3] has as its system THP-1 (acute myeloid leukemia, wt FLT3). As to the kind of experiment: Calcein AM cytotoxicity assay. The format is cell-based. The settings on record: Homo sapiens, 72 h; THP-1; Calcein AM, three days; read-out: EC50 values (μM) THP-1.
Text: as §1, §2

For assay [4], the system named is MOLM-13 (acute myeloid leukemia, FLT3-ITD positive). As to the kind of experiment: Calcein AM cytotoxicity assay. The format is cell-based. The settings on record: Homo sapiens, 72 h; MOLM-13; Calcein AM, three days; read-out: EC50 values (μM) MOLM-13.
Text: as §1, §2

For assay [5], the system named is U937 (monocytic leukemia, wt FLT3). In words: Calcein AM cytotoxicity assay. The following applies: Homo sapiens, U-937, 72 h; U937; Calcein AM, three days; read-out: EC50 values (μM) U937. The class given is cell-based.
Text: as §1, §2

For a further assay, the system named is MCF-7. As to the kind of experiment: Calcein AM cytotoxicity assay. The class given is cell-based. The settings on record: Homo sapiens, MCF7, 72 h; MCF-7; Calcein AM, three days; read-out: EC50 values (μM) MCF-7.
Text: as §1, §2

A further assay deals with K562. In words: Calcein AM cytotoxicity assay. The class given is cell-based. The settings on record: Homo sapiens, 72 h; K562; Calcein AM, three days; read-out: EC50 values (μM) K562.
Text: as §1, §2

Assay [6] relates to Kasumi-1 (acute myeloid leukemia, KIT mutation Asn822Lys). In words: Calcein AM cytotoxicity assay. The format is cell-based. The settings on record: Homo sapiens, 72 h; Kasumi-1; Calcein AM, three days; read-out: EC50 values (μM) Kasumi-1.
Text: as §1
We have been using the following cell lines: MV4-11 (acute myeloid leukemia, FLT3-ITD positive), MOLM-13 (acute myeloid leukemia, FLT3-ITD positive), THP-1 (acute myeloid leukemia, wt FLT3), U937 (monocytic leukemia, wt FLT3), EOL-1 (eosinophilic leukaemia, carrying the fusion FIP1L1-PDGFRA), H1703 (non-small cell lung carcinoma, PDGFRA amplification). They were maintained in RPMI-1640 supplemented with 10% fetal bovine serum, penicillin (100 U/ml) and streptomycin (100 μg/ml). Kasumi-1 (acute myeloid leukemia, KIT mutation Asn822Lys) cells were cultivated in RPMI-1640 supplemented with 15% fetal bovine serum, penicillin (100 U/ml) and streptomycin (100 μg/ml). K562 and MCF-7 cell lines were maintained in DMEM supplemented with 10% fetal bovine serum, penicilin (100 U/ml) and streptomycin (100 μg/ml). All cell lines were cultivated at 37° C. in 5% CO2. For cytotoxicity assays, cells were seeded in appropriate densities into 96 well plates and the next day tested compounds were added at various concentrations in triplicates. Three days after drug addition, Calcein AM solution (final concentration 1 μg/ml; Thermo Scientific, USA) was added into each well and incubated for 1 h. After this incubation period, fluorescence of the live cells was measured at 485 nm/538 nm (ex/em) with a Fluoroskan Ascent microplate reader (Labsystems).

A further assay concerns the target T2, FLT3 WT (Homo sapiens, UniProt P36888).
T2 construct: purchased ProQinase GmbH
T2 sequence (P36888 27-993): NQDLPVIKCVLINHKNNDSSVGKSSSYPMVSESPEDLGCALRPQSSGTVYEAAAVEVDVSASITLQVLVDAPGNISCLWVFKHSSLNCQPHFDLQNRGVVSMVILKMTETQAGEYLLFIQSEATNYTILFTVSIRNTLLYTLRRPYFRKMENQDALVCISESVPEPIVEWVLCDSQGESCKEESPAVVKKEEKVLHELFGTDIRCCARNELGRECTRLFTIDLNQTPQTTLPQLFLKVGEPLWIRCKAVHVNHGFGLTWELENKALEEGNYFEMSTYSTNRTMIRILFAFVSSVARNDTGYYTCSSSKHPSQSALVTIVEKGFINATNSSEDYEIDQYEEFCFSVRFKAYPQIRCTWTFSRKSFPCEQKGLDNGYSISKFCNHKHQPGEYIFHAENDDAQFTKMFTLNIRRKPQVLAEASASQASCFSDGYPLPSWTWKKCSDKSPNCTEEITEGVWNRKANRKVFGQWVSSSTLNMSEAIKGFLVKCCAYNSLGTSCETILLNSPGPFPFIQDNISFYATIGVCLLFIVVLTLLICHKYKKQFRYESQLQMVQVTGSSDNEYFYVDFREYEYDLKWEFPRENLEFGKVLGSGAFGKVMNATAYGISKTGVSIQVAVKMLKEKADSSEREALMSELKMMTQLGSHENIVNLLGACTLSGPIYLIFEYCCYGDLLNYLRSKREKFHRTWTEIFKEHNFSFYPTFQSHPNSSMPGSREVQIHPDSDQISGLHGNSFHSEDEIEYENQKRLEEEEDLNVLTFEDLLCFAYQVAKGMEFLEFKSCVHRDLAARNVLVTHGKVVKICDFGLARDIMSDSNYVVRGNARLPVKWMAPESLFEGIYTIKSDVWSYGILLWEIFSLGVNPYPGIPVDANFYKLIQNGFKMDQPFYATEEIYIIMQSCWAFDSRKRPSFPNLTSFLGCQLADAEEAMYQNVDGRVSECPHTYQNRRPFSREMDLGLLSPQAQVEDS
As to the kind of experiment: Kinase inhibition assay with [γ-33P]ATP. The class given is biochemical. The following applies: AGLT substrate, 1 μM ATP. The procedure:
as §3

Consider `c1cc(N2CCOCC2)ncc1Nc1nc(N2CCOCC2)nc2c1ncn2C1CCCC1` [Compound 46], for which the concentration giving a half-maximal response (EC50) was 0.02 µM in [1] and 0.377 µM in assay [2]. Further, the IC50 at CDK2/Cyclin E amounted to 0.951 µM.
With `CN1CCN(c2nc(Nc3ccc(N4CCNCC4)nc3)c3ncn(C4CCCC4)c3n2)CC1` [Compound 58], the EC50 in assay [3] is 1.13 µM; in assay [4], 0.017 µM; in assay [1], 0.017 µM; in [2] it was 0.056 µM; in assay [5], 0.794 µM; with MCF-7 it was 0.44 µM. In addition, the EC50 in the assay on K562 is 0.695 µM; in [6] it was 0.492 µM.
For the molecule `CCN1CCN(C(=O)c2ccc(Nc3nc(N4CCN(C)CC4)nc4c3ncn4C3CCCC3)cn2)CC1` [Compound 60], the figures for the IC50 on CDK2/Cyclin E and at FLT3 WT were 0.028 µM and 0.021 µM, respectively.
For the molecule `NC(=O)CCNc1nc(Nc2ccc(C(=O)N3CCOCC3)nc2)c2ncn(C3CCCC3)c2n1` [Compound 149], the EC50 in assay [1] is 0.007 µM; in the assay on MCF-7, 0.688 µM; in the assay on K562, 1.17 µM; in [6] it was 1.01 µM.
Turning to `CCN1CCN(C(=O)c2ccc(Nc3nc(NCCCC(N)=O)nc4c3ncn4C3CCCC3)cn2)CC1` [Compound 155], the results for the EC50 (in assay [1]; in the assay on MCF-7; with K562) were 0.164 µM, 4.71 µM and 5.17 µM, respectively. Also, at CDK2/Cyclin E, the IC50 stood at 2.6 µM.
The like results for `NC(=O)CCCCNc1nc(Nc2ccc(N3CC4(CNC4)C3)cc2)c2ncn(C3CCCC3)c2n1` [Compound 156] were, in that order, 0.001 µM, 0.697 µM, 0.84 µM and 0.006 µM.
Consider `CN(C)CCCNc1nc(Nc2ccc(N3CCN(C)CC3)cc2)c2ncn(C3CCCC3)c2n1` [Compound 174], for which the IC50 at CDK2/Cyclin E came out at 16.4 µM.
Consider `CN(C)CCCCNc1nc(Nc2ccc(C(=O)N3CCOCC3)cc2)c2ncn(C3CCCC3)c2n1` [Compound 182], for which the EC50 was 1.5 µM in [3]; 0.017 µM in assay [4]; 0.002 µM in assay [1]; 0.04 µM in assay [2]; 0.631 µM in assay [5]; 1.59 µM in the assay on MCF-7. The EC50 with K562 was 4.21 µM; in assay [6] it was 1.68 µM. Besides, the values for the IC50 on CDK2/Cyclin E and on FLT3 WT were 0.005 µM and 0.013 µM, respectively.
On to `CN(C)CCCCNc1nc(Nc2ccc(N3CCOCC3)nc2)c2ncn(C3CCCC3)c2n1` [Compound 183], for which the EC50 was 0.36 µM in assay [3]; 0.005 µM in assay [4]; 0.0005 µM in assay [1]; 0.014 µM in assay [2]; 0.4 µM in assay [5]; 0.665 µM in the assay on MCF-7. Also, the figures for the EC50 (in the assay on K562; in [6]) were 0.98 µM and 0.183 µM, respectively.
As to `CN(C)CCCCNc1nc(Nc2ccc(C(=O)N3CCN(C)CC3)nc2)c2ncn(C3CCCC3)c2n1` [Compound 185], the IC50 was found to be 0.003 µM on CDK2/Cyclin E and 0.02 µM against FLT3 WT.
For `CN1CC2(C1)CN(Cc1ccc(Nc3nc(NCC(O)CN)nc4c3ncn4C3CCCC3)cc1)C2` (stereo not drawn) [Compound 199], the EC50 was 0.925 µM in [3]; 0.043 µM in assay [4]; 0.011 µM in assay [1]; 1 µM in assay [5]; 0.67 µM with MCF-7; 1.36 µM in the assay with K562. The EC50 in assay [6] was 0.227 µM. Further, the IC50 at CDK2/Cyclin E was determined as 0.005 µM; at FLT3 WT, 0.013 µM.
For the molecule `NC1CCC(Nc2nc(Nc3ccc(N4CCOCC4)nc3)c3ncn(C4CCCC4)c3n2)CC1` (stereo not drawn) [Compound 269], the EC50 was 0.004 µM in [1]; 0.01 µM in [2]; 1.49 µM in assay [5]; 0.96 µM in the assay with MCF-7; 1.35 µM in the assay on K562. Besides, the concentration for half-maximal inhibition (IC50) on CDK2/Cyclin E came out at 0.008 µM.
On to `OCCNc1nc(Nc2ccc(CN3CCOCC3)cc2)c2ncn(C3CCCC3)c2n1` [Compound 274], for which the EC50 in [1] was 0.074 µM; in assay [2], 0.503 µM. The IC50 on CDK2/Cyclin E stood at 1.17 µM.
The like results for `OCCCNc1nc(Nc2ccc(CN3CCOCC3)cc2)c2ncn(C3CCCC3)c2n1` [Compound 275] were, in that order, 0.066 µM, 0.73 µM and 3.01 µM.
Consider `OCCCCNc1nc(Nc2ccc(CN3CCOCC3)cc2)c2ncn(C3CCCC3)c2n1` [Compound 276], for which the EC50 in [1] is 0.029 µM. In addition, the IC50 on CDK2/Cyclin E worked out at 1.8 µM.

The values above are taken from US11028087B2, “2,6-disubstituted-9-cyclopentyl-9H-purines, use thereof as medicaments, and pharmaceutical compositions” (UNIVERZITA PALACKEHO V OLOMOUCI, priority 2017, dated 2021).
